The results in this text go back to US7927639B2, “Mixture of Propionibacterium jensenii and Lactobacillus sp. with antimicrobial activities for the use as natural preservation system” (Eidgenossische Technische Hochschule Zurich, priority 2001, dated 2011).

What all share (format): cell-based
One experiment deals with fungi listed in Table 1. Kind of experiment: Antifungal activities in agar plates (overall statements). The note with it: YM agar plates stored at 6° C. The protocol:
(§1) Agar plates were prepared, supplemented with Propionbacterium jensenii SM11 or an antimicrobial Lactobacillusor a combination of both. The cultures were previously grown separately for 72 h at 32° C. in supplemented whey permeate (SWP1), centrifugated, washed once and resuspended (1:1) in 0.85% NaCl and then serially diluted in dilution-buffer (0.85% NaCl, 0.1% peptone). Portions of 20 ml of agar were prepared with 10% of each dilution to give a final level of 10^5, 10^6, 10^7 and 10^8 cfu/ml. Agar plates were poured and after solidifying, portions of approximately 2-5 μl of broth cultures of the indicator strains were spot inoculated on the plates. YM agar was used for yeasts and moulds and BHI agar for bacteria. Triplex of the agar plates were stored at 6° C., 12° C. and 25° C. for up to 4 weeks and the growth of indicator organisms was controlled weekly for 6° C. or daily for 12° C. and 25° C. As a control, agar plates without supplementation of lactobacilli and propionibacteria were prepared as well as agar plates with an addition of 1 g/l Ka-Sorbat (EU-Richtlinie, Nr. 95/2/HG).
A total of 18 lactobacilli were tested for their antifungal activities alone or in combination with the high-antifungal Propionibacterium jensenii SM11. […]

A further experiment relates to Candida silvicola 4-42/1. Kind of experiment: Antifungal activity in agar plates. The settings on record: storage 21 days at 6° C.; cultures incorporated in agar plates at 10^8 cfu/ml (SM17, SM39 10^7 cfu/ml); Ka-Sorbat 1 g/l; spot-inoculation with 10^6 cfu/ml. The protocol:
as §1
(§2) A total of 18 lactobacilli were tested for their antifungal activities alone or in combination with the high-antifungal Propionibacterium jensenii SM11. Therefore, the strains were incorporated, after centrifugation and a washing step in concentrations from 10^5 to 10^8 cfu/ml in YM agar plates on which the fungi listed in Table 1 were spotted in corresponding levels from 10^1 to 10^7 cfu/ml. The plates were stored in different batches at 6° C., 12° C. and 25° C. The growth of yeasts was controlled weekly or daily, respectively. […] A cell number of 10^8 cfu/ml of the Lactobacillus-strain and 10^8 cfu/ml of the Propionibacterium-strain was necessary for high inhibitory activities. Table 4 indicates five examples of the antifungal activities observed at 6° C. with a concentration of 10^8 cfu/ml (10^7 cfu/ml for Lactobacillus plantarum SM17) against spot-inoculated yeasts in a density of 10^6 cfu/ml and against spot-inoculated 3-day cultures of moulds.

Experiment [1] concerns Candida pulcherrima 1-50/13. Kind of experiment: Antifungal activity in agar plates. The settings on record: storage 21 days at 6° C.; cultures incorporated in agar plates at 10^8 cfu/ml (SM17, SM39 10^7 cfu/ml); Ka-Sorbat 1 g/l; spot-inoculation with 10^6 cfu/ml. The protocol:
as §1, §2

The next experiment concerns Candida sp. 1-50/15. The experiment in a line: Antifungal activity in agar plates. The note with it: storage 21 days at 6° C.; cultures incorporated in agar plates at 10^8 cfu/ml (SM17, SM39 10^7 cfu/ml); Ka-Sorbat 1 g/l; spot-inoculation with 10^6 cfu/ml. As to the method: as §1, §2
Experiment [2] concerns Zygosaccharomyces bailii 1-48/1. The experiment in a line: Antifungal activity in agar plates. The settings on record: storage 21 days at 6° C.; cultures incorporated in agar plates at 10^8 cfu/ml (SM17, SM39 10^7 cfu/ml); Ka-Sorbat 1 g/l; spot-inoculation with 10^6 cfu/ml. The protocol: as §1, §2
The test system of a further experiment is Candida valida 1-48/8. The experiment in a line: Antifungal activity in agar plates. The note with it: storage 21 days at 6° C.; cultures incorporated in agar plates at 10^8 cfu/ml (SM17, SM39 10^7 cfu/ml); Ka-Sorbat 1 g/l; spot-inoculation with 10^6 cfu/ml. As to the method:
as §1, §2

Experiment [3] has as its system Candida parapsilosis 4-5/1. The experiment in a line: Antifungal activity in agar plates. The settings on record: storage 21 days at 6° C.; cultures incorporated in agar plates at 10^8 cfu/ml (SM17, SM39 10^7 cfu/ml); Ka-Sorbat 1 g/l; spot-inoculation with 10^6 cfu/ml. The protocol:
as §1, §2

A further experiment concerns Candida magnoliae 1-35/1. The experiment in a line: Antifungal activity in agar plates. The settings on record: storage 21 days at 6° C.; cultures incorporated in agar plates at 10^8 cfu/ml (SM17, SM39 10^7 cfu/ml); Ka-Sorbat 1 g/l; spot-inoculation with 10^6 cfu/ml. The protocol: as §1, §2
In experiment [4] the test system is Sporobolomyces salmonicolor 3-46/2. The experiment in a line: Antifungal activity in agar plates. The settings on record: storage 21 days at 6° C.; cultures incorporated in agar plates at 10^8 cfu/ml (SM17, SM39 10^7 cfu/ml); Ka-Sorbat 1 g/l; spot-inoculation with 10^6 cfu/ml. The protocol: as §1, §2
The subject of the next experiment is Candida krusei 3-69/2. Kind of experiment: Antifungal activity in agar plates. The settings on record: storage 21 days at 6° C.; cultures incorporated in agar plates at 10^8 cfu/ml (SM17, SM39 10^7 cfu/ml); Ka-Sorbat 1 g/l; spot-inoculation with 10^6 cfu/ml. The protocol: as §1, §2
The next experiment deals with Candida reukaufii 4-73/4. Kind of experiment: Antifungal activity in agar plates. The settings on record: storage 21 days at 6° C.; cultures incorporated in agar plates at 10^8 cfu/ml (SM17, SM39 10^7 cfu/ml); Ka-Sorbat 1 g/l; spot-inoculation with 10^6 cfu/ml. The protocol: as §1, §2

As to `C/C=C/C=C/C(=O)[O-].[K+]` [Ka-Sorbat], the “antifungal (inhibitory) activity in agar plates, in words” value with fungi listed in Table 1 was “weaker inhibitory activity”. The “colony growth of Candida silvicola 4-42/1” value with Candida silvicola 4-42/1 is on record as “++ (++ strong colony (≈0% inhibition))”. In [1], the “colony growth of Candida pulcherrima 1-50/13” value was “++ (++ strong colony (≈0% inhibition))”. Further, the “colony growth of Candida sp. 1-50/15” value with Candida sp. 1-50/15 is reported as “++ (++ strong colony (≈0% inhibition))”. In [2], the “colony growth of Zygosaccharomyces bailii 1-48/1” value is on record as “− (− no colony (≈100% inhibition))”. Moreover, the “colony growth of Candida valida 1-48/8” value in the experiment with Candida valida 1-48/8 is “− (− no colony (≈100% inhibition))”. Moreover, in experiment [3], the “colony growth of Candida parapsilosis 4-5/1” value was “− (− no colony (≈100% inhibition))”. For the same molecule, in the experiment on Candida magnoliae 1-35/1, the “colony growth of Candida magnoliae 1-35/1” value is listed as “++ (++ strong colony (≈0% inhibition))”. Also, in experiment [4], the “colony growth of Sporobolomyces salmonicolor 3-46/2” value is “− (− no colony (≈100% inhibition))”. Also, the “colony growth of Candida krusei 3-69/2” value in the experiment with Candida krusei 3-69/2 is recorded as “− (− no colony (≈100% inhibition))”. For the same molecule, in the experiment with Candida reukaufii 4-73/4, the “colony growth of Candida reukaufii 4-73/4” value is “++ (++ strong colony (≈0% inhibition))”.
